Measured values reported in patent US12668591B2, “1,2,4-oxadiazole derivatives as histone deacetylase 6 inhibitors” (Oryzon Genomics, S.A., priority 2017, dated 2026).

Legend:
HDAC6 [1] = target: T1, HDAC6 (Homo sapiens, UniProt Q9UBN7); test: In vitro cell-based assay: acetylation levels of Alpha-Tubulin by Western Blot in MOLP8 cells; parameters: endogenous in cells; host or cells: MOLP8; conditions: 18 h, acetyl-alpha-tubulin relative band intensity, ACY-1215 1 μM = 100%
T1 sequence (Q9UBN7 1-1215): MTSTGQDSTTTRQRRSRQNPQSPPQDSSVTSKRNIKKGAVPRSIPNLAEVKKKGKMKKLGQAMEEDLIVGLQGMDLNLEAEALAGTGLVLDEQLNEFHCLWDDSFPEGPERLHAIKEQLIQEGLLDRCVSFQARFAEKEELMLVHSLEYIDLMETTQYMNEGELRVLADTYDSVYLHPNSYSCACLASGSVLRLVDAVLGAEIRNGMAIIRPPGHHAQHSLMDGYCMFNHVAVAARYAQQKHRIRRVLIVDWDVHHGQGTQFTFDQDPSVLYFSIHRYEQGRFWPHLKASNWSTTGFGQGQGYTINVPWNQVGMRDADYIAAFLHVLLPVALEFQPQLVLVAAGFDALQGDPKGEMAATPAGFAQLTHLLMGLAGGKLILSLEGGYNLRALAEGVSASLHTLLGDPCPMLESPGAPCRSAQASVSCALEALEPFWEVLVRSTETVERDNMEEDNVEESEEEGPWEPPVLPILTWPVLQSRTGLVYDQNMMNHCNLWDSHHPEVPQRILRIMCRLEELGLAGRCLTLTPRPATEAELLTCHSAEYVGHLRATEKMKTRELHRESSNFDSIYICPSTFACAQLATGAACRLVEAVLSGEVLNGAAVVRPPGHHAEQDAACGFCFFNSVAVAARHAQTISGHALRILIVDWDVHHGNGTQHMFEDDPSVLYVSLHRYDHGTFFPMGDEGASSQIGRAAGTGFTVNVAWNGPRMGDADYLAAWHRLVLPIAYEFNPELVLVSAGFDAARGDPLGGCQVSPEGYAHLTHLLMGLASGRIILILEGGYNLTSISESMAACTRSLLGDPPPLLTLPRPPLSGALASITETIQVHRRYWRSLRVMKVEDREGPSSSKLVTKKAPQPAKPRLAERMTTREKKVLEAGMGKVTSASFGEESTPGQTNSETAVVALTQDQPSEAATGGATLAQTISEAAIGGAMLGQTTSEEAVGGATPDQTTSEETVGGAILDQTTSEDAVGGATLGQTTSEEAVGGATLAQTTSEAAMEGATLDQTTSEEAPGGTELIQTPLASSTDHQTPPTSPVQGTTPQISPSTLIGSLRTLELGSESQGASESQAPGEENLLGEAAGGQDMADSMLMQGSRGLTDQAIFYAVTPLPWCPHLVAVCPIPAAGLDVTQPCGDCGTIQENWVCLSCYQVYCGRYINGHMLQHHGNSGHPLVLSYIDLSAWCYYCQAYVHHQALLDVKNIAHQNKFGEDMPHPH
Method: In Vitro Cell-Based Assay
In order to determine the cellular activity of HDAC6 upon treatment with HDAC6 inhibitors, acetylation levels of Alpha-Tubulin (a HDAC6-specific substrate) were measured by Western Blot. For this, MOLP8 cells were seeded in 6-well plates at a cell density of 500.000 cells/well and treated with the selected compounds at 5 and 1 μM for 18 h at 37° C. and 5% CO2 in a humidified tissue culture incubator. Consecutively, cell pellets were collected and whole protein extracts prepared using RIPA buffer (SIGMA) supplemented with 1× protease inhibitors (cOmplete mini, Roche). Protein concentration was determined with Bradford's reagent (Bio-Rad) as per manufacturer's instructions, and 7 μg of total protein were loaded into pre-cast 10% NuPAGE Novex gels (Life Technologies). Gels were run in […] (Life Technologies) and proteins were transferred using the iBlot 2 Dry Blotting System (Life Technologies). Blots were subsequently rinsed in distilled water and stained with Ponceau S solution (SIGMA). Blots were then washed in distilled water to remove Ponceau excess and scanned with the Epson Perfection V600 Photo professional Scanner. After this, blots were de-stained and blocked in 5% milk/PBS-Tween 0.1% for 1 h at room temperature followed by incubation with anti-Acetyl-alpha Tubulin (SIGMA cat. #T7451, 1:10.000 dilution) and anti-Beta-actin (SIGMA, cat. #A5316, 1:2.000 dilution) primary antibodies in 5% milk/PBS-T 0.1%, overnight at 4° C. on a shaking platform. After incubation, blots were washed 3 times for 5 minutes each in PBS-Tween 0.5% and incubated with anti-mouse HRP-conjugated secondary antibody (Jackson Immuno Research, cat. #115-035-068) at 1:8.000 in 5% milk/PBS-Tween 0.1%, 1 h at room temperature on a shaking platform. After 3 washes of 5 minutes each with PBS-Tween 0.5% and 1 wash in PBS 1×, blots were developed with ECL Plus (GE Healthcare) and the chemiluminescent reaction imaged with the G:Box Chemi XRQ (Syngene) imaging system. WB and Ponceau images were analysed with ImageJ software, WB band intensities normalized by either total protein or Beta-actin content and made relative to ACY-1215 1 μM (equivalent to 100%). ACY-1215 is a HDAC6 inhibitor, and is also known as ricolinostat, with chemical name 2-(diphenylamino)-N-[7-(hydroxyamino)-7-oxoheptyl]-5-pyrimidinecarboxamide. Percentage of band intensities was classified as follows: […]

HDAC6 [2] = target: T1, HDAC6; test: HDAC6 enzyme inhibition assay (fluorimetric); assay type: biochemical; conditions: 1 μM compound; 3 h pre-incubation; recombinant full length HDAC6; read-out: HDAC6 % inh @ 1 μM
Method: (§1) HDAC6 and HDAC2 Enzyme Inhibition Assay
(§2) A fluorimetric assay was used for testing the activity of compounds of the invention against HDAC6 and HDAC2.
(§3) The compounds were dissolved in DMSO. Serial dilutions were prepared in DMSO and then diluted 1:10 in HDAC assay buffer (Tris-buffered solution, BPS Bioscience Inc. #50031). 5 μl of the compound dilution was added to a 50 μl reaction so that the final concentration of DMSO was 1%.
(§4) The compounds were pre-incubated in duplicate at RT for 3 hours in a mixture containing HDAC assay buffer, 5 μg BSA and recombinant HDAC enzyme (see table above). The enzymatic reactions were initiated by the addition of a fluorogenic, acetylated peptide substrate based on a histone protein (BPS Bioscience Inc. #50037) to a final concentration of 10 μM. The enzymatic reaction proceeded for 30 minutes at 37° C. Then, 50 μl of 2× HDAC Developer, which contains peptidase activity and Trichostatin A (BPS Bioscience Inc. #50030) was added and the plate was incubated at RT for an additional 15 minutes. Fluorescence intensity was measured at an excitation of 360 nm and an emission of 460 nm using a Tecan Infinite M1000 microplate reader.
(§5) Trichostatin A (TSA, Selleckchem #S1045) was used as reference inhibitor.
(§6) The fluorescent intensity data were analyzed using the computer software Graphpad Prism (GraphPad Software, San Diego, CA). 100% activity was defined as the fluorescent intensity (Ft) in the absence of the compound. 0% activity was defined as the fluorescent intensity (Fb) in the absence of the enzyme. The percent activity in the presence of each compound was calculated according to the following equation: % activity=(F−Fb)/(Ft−Fb), where F=the fluorescent intensity in the presence of the compound.

HDAC2 = target: T2, HDAC2 (Homo sapiens, UniProt Q92769); test: HDAC2 enzyme inhibition assay (fluorimetric); assay type: biochemical; conditions: 1 μM compound; 3 h pre-incubation; recombinant full length HDAC2; read-out: HDAC2 % inh @ 1 μM
T2 construct: (full length with C-terminal His-tag); His (C); purchased BPS Bioscience Inc. 50002
T2 sequence (Q92769 whole entry): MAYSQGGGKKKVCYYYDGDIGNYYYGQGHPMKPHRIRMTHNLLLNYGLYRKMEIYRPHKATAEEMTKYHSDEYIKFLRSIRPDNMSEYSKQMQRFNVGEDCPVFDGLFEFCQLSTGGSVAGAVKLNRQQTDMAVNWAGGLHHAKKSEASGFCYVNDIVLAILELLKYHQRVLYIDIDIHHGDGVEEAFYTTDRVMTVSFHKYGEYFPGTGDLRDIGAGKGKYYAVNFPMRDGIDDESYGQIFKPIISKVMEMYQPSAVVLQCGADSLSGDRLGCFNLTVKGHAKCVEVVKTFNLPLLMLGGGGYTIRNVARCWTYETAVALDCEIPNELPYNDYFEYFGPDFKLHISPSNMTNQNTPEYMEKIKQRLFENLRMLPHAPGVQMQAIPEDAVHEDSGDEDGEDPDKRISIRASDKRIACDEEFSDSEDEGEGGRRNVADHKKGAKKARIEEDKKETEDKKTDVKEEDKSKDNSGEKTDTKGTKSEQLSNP
Method: as §1, §2, §3, §4, §5, §6

`CCCCn1ccc2cc(-c3cc(-c4noc(C(F)(F)F)n4)ccn3)ncc21` [Example 1, 3-(2-(1-Butyl-1H-pyrrolo[2,3-c]pyridin-5-yl)pyridin-4-yl)-5-(trifluoromethyl)-1,2,4-oxadiazole] was tested, and the “Cellular activity @1 uM” value (HDAC6 [1]) was “− (<50)”, the “Cellular activity @5 uM” value (HDAC6 [1]) was “+ (50-150)” and the inhibition at 1 µM (HDAC6 [2]) was 79%.
`FC(F)(F)c1nc(-c2ccnc(-c3cc4c(CN5CCCCC5)n[nH]c4cn3)c2)no1` [Example 1aa, 3-(2-(3-(Piperidin-1-ylmethyl)-1H-pyrazolo[3,4-c]pyridin-5-yl)pyridin-4-yl)-5-(trifluoromethyl)-1,2,4-oxadiazole] was tested, and the “Cellular activity @1 uM” value (HDAC6 [1]) was “+ (50-150)”, the “Cellular activity @5 uM” value (HDAC6 [1]) was “+ (50-150)” and the inhibition at 1 µM (HDAC6 [2]) was 92%.
For `FC1(F)CCN(CCn2ccc3cnc(-c4cc(-c5noc(C(F)(F)F)n5)ccn4)cc32)CC1` [Example 1ab, 3-(2-(1-(2-(4,4-Difluoropiperidin-1-yl)ethyl)-1H-pyrrolo[3,2-c]pyridin-6-yl)pyridin-4-yl)-5-(trifluoromethyl)-1,2,4-oxadiazole], the inhibition at 1 µM (HDAC2) was 38%, the “Cellular activity @1 uM” value (HDAC6 [1]) was “++ (150-300)” and the “Cellular activity @5 uM” value (HDAC6 [1]) was “++ (150-300)”. It also gave an inhibition at 1 µM (HDAC6 [2]) of 93%.
For `CN1CCC(C(=O)Nc2ccc(-c3cc(-c4noc(C(F)(F)F)n4)ccn3)nc2)CC1` [Example 1ac, 1-Methyl-N-(4′-(5-(trifluoromethyl)-1,2,4-oxadiazol-3-yl)-[2,2′-bipyridin]-5-yl)piperidine-4-carboxamide], the inhibition at 1 µM (HDAC2) was 18%, the “Cellular activity @1 uM” value (HDAC6 [1]) was “+ (50-150)” and the “Cellular activity @5 uM” value (HDAC6 [1]) was “++ (150-300)”. The inhibition at 1 µM (HDAC6 [2]) was 78%.
In the case of `O=C(CC1CCC1)Nc1ccnc(-c2cc(-c3noc(C(F)(F)F)n3)ccn2)c1` [Example 1ae, 2-Cyclobutyl-N-(4′-(5-(trifluoromethyl)-1,2,4-oxadiazol-3-yl)-[2,2′-bipyridin]-4-yl)acetamide], the inhibition at 1 µM (HDAC2) is reported as 5%, the “Cellular activity @1 uM” value (HDAC6 [1]) is reported as “+ (50-150)” and the “Cellular activity @5 uM” value (HDAC6 [1]) is reported as “+ (50-150)”. The inhibition at 1 µM (HDAC6 [2]) was 85%.
With `CCCn1cc(CO)c2cc(-c3cc(-c4noc(C(F)(F)F)n4)ccn3)ncc21` [Example 1ah, (1-Propyl-5-(4-(5-(trifluoromethyl)-1,2,4-oxadiazol-3-yl)pyridin-2-yl)-1H-pyrrolo[2,3-c]pyridin-3-yl)methanol] the inhibition at 1 µM (HDAC2) was 35%, the “Cellular activity @1 uM” value (HDAC6 [1]) was “+ (50-150)” and the “Cellular activity @5 uM” value (HDAC6 [1]) was “++ (150-300)”. It also gave an inhibition at 1 µM (HDAC6 [2]) of 96%.
With `FC(F)(F)c1nc(-c2ccnc(-c3cc4[nH]ccc4cn3)c2)no1` [Example 1ak, 3-(2-(1H-Pyrrolo[3,2-c]pyridin-6-yl)pyridin-4-yl)-5-(trifluoromethyl)-1,2,4-oxadiazole] the inhibition at 1 µM (HDAC2) was 14%, the “Cellular activity @1 uM” value (HDAC6 [1]) was “+ (50-150)” and the “Cellular activity @5 uM” value (HDAC6 [1]) was “++ (150-300)”. It also gave an inhibition at 1 µM (HDAC6 [2]) of 90%.
For `CCCCn1c(C(=O)N(C)C)cc2cc(-c3cc(-c4noc(C(F)(F)F)n4)ccn3)ncc21` [Example 1b, 1-Butyl-N,N-dimethyl-5-(4-(5-(trifluoromethyl)-1,2,4-oxadiazol-3-yl)pyridin-2-yl)-1H-pyrrolo[2,3-c]pyridine-2-carboxamide], the “Cellular activity @1 uM” value (HDAC6 [1]) was “+ (50-150)”, the “Cellular activity @5 uM” value (HDAC6 [1]) was “++ (150-300)” and the inhibition at 1 µM (HDAC6 [2]) was 84%.
`CCCCn1c(C(=O)NCC)cc2cc(-c3cc(-c4noc(C(F)(F)F)n4)ccn3)ncc21` [Example 1d, 1-Butyl-N-ethyl-5-(4-(5-(trifluoromethyl)-1,2,4-oxadiazol-3-yl)pyridin-2-yl)-1H-pyrrolo[2,3-c]pyridine-2-carboxamide] was tested, and the “Cellular activity @1 uM” value (HDAC6 [1]) was “+ (50-150)”, the “Cellular activity @5 uM” value (HDAC6 [1]) was “++ (150-300)” and the inhibition at 1 µM (HDAC6 [2]) was 78%.
In the case of `CCCn1cc(CN2CCOCC2)c2cc(-c3cc(-c4noc(C(F)(F)F)n4)ccn3)ncc21` [Example 1h, 4-((1-Propyl-5-(4-(5-(trifluoromethyl)-1,2,4-oxadiazol-3-yl)pyridin-2-yl)-1H-pyrrolo[2,3-c]pyridin-3-yl)methyl)morpholine], the “Cellular activity @1 uM” value (HDAC6 [1]) is reported as “+ (50-150)”, the “Cellular activity @5 uM” value (HDAC6 [1]) is reported as “++ (150-300)” and the inhibition at 1 µM (HDAC6 [2]) is reported as 96%.
With `CCN(CC)CCCOc1cnc(-c2cc(-c3noc(C(F)(F)F)n3)ccn2)nc1` [Example 1m, N,N-Diethyl-3-(2-(4-(5-(trifluoromethyl)-1,2,4-oxadiazol-3-yl)pyridin-2-yl)pyrimidin-5-yloxy)propan-1-amine] the “Cellular activity @1 uM” value (HDAC6 [1]) was “− (<50)”, the “Cellular activity @5 uM” value (HDAC6 [1]) was “+ (50-150)” and the inhibition at 1 µM (HDAC6 [2]) was 81%.
For `FC(F)(F)c1nc(-c2ccnc(-c3cc4c(ccn4CC4CCOCC4)cn3)c2)no1` [Example 1r, 3-(2-(1-((Tetrahydro-2H-pyran-4-yl)methyl)-1H-pyrrolo[3,2-c]pyridin-6-yl)pyridin-4-yl)-5-(trifluoromethyl)-1,2,4-oxadiazole], the “Cellular activity @1 uM” value (HDAC6 [1]) was “++ (150-300)”, the “Cellular activity @5 uM” value (HDAC6 [1]) was “++ (150-300)” and the inhibition at 1 µM (HDAC6 [2]) was 92%.
With `FC(F)(F)c1nc(-c2ccnc(-c3cc(OCCN4CCOCC4)ccn3)c2)no1` [Example 1t, 4-(2-((4′-(5-(Trifluoromethyl)-1,2,4-oxadiazol-3-yl)-[2,2′-bipyridin]-4-yl)oxy)ethyl)morpholine] the “Cellular activity @1 uM” value (HDAC6 [1]) was “− (<50)”, the “Cellular activity @5 uM” value (HDAC6 [1]) was “+ (50-150)” and the inhibition at 1 µM (HDAC6 [2]) was 88%.
